Results published in ChEMBL document CHEMBL1151933, “Identification of a disruptor of the MDM2-p53 protein-protein interaction facilitated by high-throughput in silico docking” (Bioorg Med Chem Lett, 2009).

Assays:
[1] = Inhibition of GST-tagged MDM2 (1-150) / full-length His6-tagged p53 interaction expressed in Escherichia coli by alphascreen assay
[2] = Inhibition of GST-tagged MDM2/His6-tagged p53 interaction by ELISA
[3] = Inhibition of GST-tagged MDM2/His6-tagged p53 interaction at 100 uM by ELISA

SMILES	IC50 [1] [µM]	IC50 [2] [µM]	inhibition [3] [%]
c1ccc(/C(=N/Nc2nc3ccccc3s2)c2ccccn2)cc1.c1ccc(/C(=N\Nc2nc3ccccc3s2)c2ccccn2)cc1 (mixture of isomers; form 1)	13		
c1ccc(/C(=N/Nc2nc3ccccc3s2)c2ccccn2)cc1.c1ccc(/C(=N\Nc2nc3ccccc3s2)c2ccccn2)cc1 (mixture of isomers; form 2) [listing 1 of 2 here]	25	20	
c1ccc(/C(=N/Nc2nc3ccccc3s2)c2ccccn2)cc1.c1ccc(/C(=N\Nc2nc3ccccc3s2)c2ccccn2)cc1 (mixture of isomers; form 2) [listing 2 of 2 here]			> 50
COc1ccc(C2=N[C@@H](c3ccc(Cl)cc3)[C@@H](c3ccc(Cl)cc3)N2C(=O)N2CCNC(=O)C2)c(OC(C)C)c1 [NUTLIN-3]	0.25		
